# Laboratory results taken from patent publication US5157032A, “Mixed ligand complexes and uses thereof as binding agents and probes to DNA” (The Trustees of Columbia University In The City of New York, priority 1990, dated 1992).
# Values joined by “and” are separate entries in the source; they are usually repeats but may differ in a detail not shown here. Equal values may be shown once. “Also recorded” adds a separate entry of the source. Read-outs that look alike come from different tables or passages of the source.
# How the values were obtained:
# HIV = type: cell-based
# Experimental: The procedure used For testing agents active against (HIV) is designed to detect agents acting at any stage of the virus reproductive cycle. The assay basically involves the killing of T4 lympnocytes by HIV. Small amounts of HIV are added to cells, and at least two complete cycles of virus reproduction are necessary to obtain the required cell killing. […] The system is automated in several ceatures to accomodate large numbers of candidate agents, and is generally designed to detect anti-HIV activity. […]. Also, while every attempt has been made to reduce variability, precise values for EC50, IC50, and Therapeautic Index are not possible. All tests are compared with a positive (AZT-treated) control done at the same time under identical conditions.
# (§1) 1. […] lymphocytes (CEM cell line) are exposed to HIV at a virus to cell ratio approximately 0.05, and plated along with noninfected control cells in 96-well microtiter plates.
# (§2) 2. Candidate agent is dissolved in dimethyl sulfoxide (unless otherwose instructed), then diluted 1:200 in cell culture medium. Further dilutions (half-log10) are prepared before adding to an equal volume of medium containing either infected or noninfected cells.
# (§3) 3. Cultures are incubated at 37° in a 5% carbon dioxide atmosphere for 6 or 7 days.
# (§4) 4. The tetrazolium salt, XTT, is added to all wells, and cultures are incubated to allow formazan color development by viable cells.
# (§5) 5. Individual wells are analyzed spectrophotometrically to quantitate formazan production, and in addition are viewed microscopically for detection of viable cells and confirmation of protective activity.
# (§6) 6. Drug-treated virus-infected cells are compared with drug-treated noninfected cells and with other appropirate controls (untreated infected and untreated noninfected cells, drug-containing wells without cells, etc.) on the same plate.
# 7. Data are reviewed in comparison with other tests done at the same time, and a determinatin about activity is made.
# Several complexes were tested for use as agents active against (HIV). […]
# (§7) The Graphic Results Summary Section: FIGS. 23-33 display a plot of Log 10 of the sample's concentration (as μg/mL or molar) against the measured test values expressed as a percentage of uninfected, untreated control values. The solid line connecting the diamond symbols depicts the percentage of surviving HIV-infected cells treated with your sample (at the indicated onccentration) relative to uninfected, untreated cotrols. This line expressed the in-vitro anti-HIV activity of your sample. The dashed line connecting the square symbols depicts the percentage of surviving uninfected cells treated with your sample relative to the same uninfected, untreated controls. This line expresses the in-vitro growth inhibitory properties of your sample. The viral cytophathic effect in this particular experiment is indicated by a dotted reference line. […] Values of this parameter less than 50% are considered acceptable in the current protocol. Reference lines at 0% and 50% are depicted as alternating dots and dashes.
# [1] = system: CEM cell line (T4 lymphocytes); test: Growth inhibition of uninfected CEM cells in the anti-HIV screen (XTT); type: cell-based
# Experimental: as §1, §2, §3, §4, §5, §6, §7
# pBR322 DNA = test: Unwinding of supercoiled pBR322 DNA (topoisomerase I assay); conditions: for Unwinding Angle: per molecule of bound complex; for EC50: read-out: Unwinding concentration, needed to unwind 11 of 22 supercoils, [DNA] 47 μM for phi complexes, 31.5 μM others, 60 min
# calf thymus DNA [2] = test: Absorption titration with calf thymus DNA (half-reciprocal, hypochromism); type: binding; conditions: in words; for binding to DNA: absorption changes too small for Kb
# Source text: In plots of [DNA]/(εA -εF) versus [DNA], Kb is given by the ratio of the slope to intercept.
# calf thymus DNA [3] = test: Equilibrium dialysis of racemic complexes against calf thymus DNA (Scatchard, dialysate CD); type: binding; design: Km × 10) equilibrium dialysis (intrinsic binding constant Kb): scale not given here; conditions: for Km × 10) equilibrium dialysis (intrinsic binding constant Kb): 5 mM Tris, 50 mM NaCl, pH 7.5, standard deviation in parentheses; for Site size: fit to McGhee and von Hippel equation; for binding affinity for DNA: comparative
# Experimental: Equilibrium Dialysis: Equlibrium dialysis of the reacemic metal complexes was perforemd against calf-thymus DNA using procedures described previously. (74) The buffer used was 5 mM Tris, 50 mM NaCl at pH 7.5. Samples were agitated on a shaker bath during equilibration which occurred after three to five days, as determined by control samples containing no DNA. After equilibration, volumes of liquid inside and outside the dialysis bags were determined (approximately 1 and 3 mls, respectively) and circular dichroism of the dialysate was meaxured on a Jasco J-40 spectropolarimeter. Final ruthenium concentration inside and outside the bags were measured by visible absorbance. Data anaylsis was performed on a VAX-780 using non-linear least squares analysis.
# Equilibrium Dialysis: Equilibrium binding constants for the metal complexes with DNA may be determined classically by equilibrium dialysis. Calf thymus DNA was dialyzed against the series of mixed ligand complexes using a broad range of ruthenium concentrations. […] The results have been plotted according to Scatchard (88), where r is the ratio of bound metal to DNA-phosphate concentration, and cf is the concentration of free metal complex. The data were fit by non-linear least squares analysis to the McGhee and von Hippel equation (8945) governing random non-cooperative binding to a lattice,
# where r is the ratio of bound concentration of ruthenium to the concentration of DNA-phosphate, cf is the concentration of ruthenium free in soltuion, Kb the intrinsic binding constant, and the integer /, which measures the degree of anti-cooperativeity, is the size of a binding site in base pairs. The curves shown reflect the best fit after variation of two parameters: the intrinsic binding constant, Kb, and binding stie size, /. For those complexes were cooperatively was observed, the equation (89) incorporating a cooperativity parameter was used.
# Equilibrium dialysis experiments additionally offer the opportunity to examine any enantiomeric selectivities associated with binding. After dialysis of the DNA against the racemic mixture, optical activity observed in the dialysate refelects an enrichment in the dialysate in the less favored enantiomer. For most of the complexes, optical activity was found in the dialysate. Values for the extent of enantiomeric selectivity could not be quanitated in the absence of determinations of DE and assignments of absolute configuration. Assuming that the signs of the circular chroism in the ultraviolet ligand bands are the same for the these ligands as that for the parent phenanthroline complex, (90) we have assigned the absolute configuration of these complexes by comparison to spectra for enantiomers of Ru(phen)3^2+ and have compared levels of enantioselectivity qualitatively through measurements of circular dichroic intensity per rutheium bound. Based upon these assumptions, we find enantionmeric selectivities for the polyridyl complexes to reflect an enrichment in the isomer in the dialysate and the preferential binding of the isomer to the right-handed DNA. This observation is consistent with the preferential intercalation of isomers found earlier for Ru(phen)3^2+ in right-handed B-DNA. (63) We may also compare relative enantioselectivities for different ancillary ligands. […] The same comparison may be seen qualitatively between Ru(phen)2 DIP^2+ and Ru(bpy)2 DIP^2+.
# calf thymus DNA [4] = test: Spectroscopic properties (absorption, emission, lifetime) on binding to calf thymus DNA; conditions: 7 μM Ru, 40:1 nucleotide/metal, 20° C.
# Experimental: Instrumentation: NMR spectra were recorded on a Varian VXR-300MHz spectormeter. FABS were performed using a VG Analytical 7070EQ Mas Spectrometer (78), and elemental analyses were done by Galbraith Laboratories in Nashville, Tenn. UV-Visible absorbance spectal were recorded on a Varian CARY-219 absorbance spectorphotometer. Extinction coefficients for the compounds were determined versus ruthenium concentrations obtained by atomic absorption spectroscopy with known ruthenium standards. [Ru(bpy)3 ]Cl2 solutions were also employed for these determinations as an internal standard. A varian AA-875 atomic absorption spectrophotometer was used for these determinations.
# Emission spectra were measured on a Perkin-Elmer LS-5 fluorescence spectrometer. The samples were excited at their corresponding isosbestic points. All the measurements were made at 20° C. in a thermostatted cuvette holder with 3 nm entrance slit and 10 nm exit slit. Ruthenium solutions employed were 7 μM in concentration and claf thymus DNA was added to a ration of 40:1 nucleotide/metal; ruthenuim-DNA soltuions were allowed to incubate for 15 minutes before enhanced spectra were recorded. The emission enhancement factors were measured by comparing the intensitites at the emission spectral mixima in the absence ad presence of DNA, under similar conditions.
# The limunescence lifetime measurements were done on a PRA SPC (single photon countining) spectometer with some minor modifications. The samples were excited with a nitrogen filled tnynratron gated flash lamp and the data were collected using a Tracor Northern 1710 multichannel analyser. The data were then transferred to a PDP-11/03 computer and deconvoluted with PRA software. […] concentrated solution of DNA (5mM DNA-phosphate) in buffer was added to a solution of the metal complex (4 μM) in buffer and allowed to equilibrate. Lifetimes of the samples were measured 0.5 hr after the metal complexes were mixed with DNA. All measurements were made at 20° C. and under air saturated conditions.
# Furthermore, for all the complexes, this electronic transition is perturbed on binding to DNA.
# [5] = Table 12, dose 1 of 8, printed 9.14 × 10- μg/ml
# [6] = Table 12, dose 2 of 8, printed 1.82 × 10+ μg/ml
# [7] = Table 12, dose 3 of 8, printed 3.65 × 10+ μg/ml
# [8] = Table 12, dose 4 of 8, printed 7.31 × 10+ μg/ml
# [9] = Table 12, dose 5 of 8, printed 1.46 × 10+ μg/ml
# [10] = Table 12, dose 6 of 8, printed 2.92 × 10+ μg/ml
# [11] = Table 12, dose 7 of 8, printed 5.85 × 10+ μg/ml
# [12] = Table 12, dose 8 of 8, printed 1.17 × 10+ μg/ml
smiles,measurement,setting,value
[Rh+3].c1ccc(-c2ccnc3c2ccc2c(-c4ccccc4)ccnc23)cc1.c1ccc(-c2ccnc3c2ccc2c(-c4ccccc4)ccnc23)cc1.c1ccc(-c2ccnc3c2ccc2c(-c4ccccc4)ccnc23)cc1 [Rh(DIP)3],Infected Culture Response(%),HIV; [5],12.4%
same,Infected Culture Response(%),HIV; [6],18.5%
same,Infected Culture Response(%),HIV; [7],64.7%
same,Infected Culture Response(%),HIV; [8],45.4%
same,Infected Culture Response(%),HIV; [9],-.3%
same,Infected Culture Response(%),HIV; [10],-.9%
same,Infected Culture Response(%),HIV; [11],-1.8%
same,Infected Culture Response(%),HIV; [12],-1.8%
same,Infected Culture Response(%),"HIV; Tables 6-11, dose 3 of 8, 1.17 × 10- [sic] μg/ml",8.0%
same,activity in inhibiting the activity of HIV,HIV; in words,moderately active
same,Uninfected Culture Response(%),[1]; [5],92.9%
same,Uninfected Culture Response(%),[1]; [6],91.8%
same,Uninfected Culture Response(%),[1]; [7],82.4%
same,Uninfected Culture Response(%),[1]; [8],55.2%
same,Uninfected Culture Response(%),[1]; [9],-.9%
same,Uninfected Culture Response(%),[1]; [10],-1.6%
same,Uninfected Culture Response(%),[1]; [11],-.7%
same,Uninfected Culture Response(%),[1]; [12],-1.5%
same,Uninfected Culture Response(%),"[1]; Tables 2-5, dose 1 of 8, 1.25 × 10- [sic] μg/ml",110.1% and 100.3% and 133.6% and 105.1%
same,Uninfected Culture Response(%),"[1]; Tables 2-5, dose 2 of 8, 1.25 × 10- [sic] μg/ml",113.1% and 98.9% and 131.0% and 82.1%
same,Uninfected Culture Response(%),"[1]; Tables 2-5, dose 3 of 8, 1.25 × 10- [sic] μg/ml",106.0% and 89.3% and 108.6% and 65.1%
same,Uninfected Culture Response(%),"[1]; Tables 2-5, dose 8 of 8, 1.25 × 10+ [sic] μg/ml",-6% and -1.6% and -6.8% and -2.1%
same,Uninfected Culture Response(%),"[1]; Tables 6-11, dose 1 of 8",101.9% and 100.5% and 96.6% and 96.5% and 100.2% and 101.1%
same,Uninfected Culture Response(%),"[1]; Tables 6-11, dose 2 of 8",94.1% and 96.9% and 97.4% and 80.8% and 102.4% and 95.3%
same,Uninfected Culture Response(%),"[1]; Tables 6-11, dose 3 of 8",96.8% and 102.2% and 101.8% and 86.9% and 115.3% and 110.6%
same,Uninfected Culture Response(%),"[1]; Tables 6-11, dose 4 of 8",95.5% and 100.6% and 98.1% and 98.3% and 121.1% and 108.9%
same,Uninfected Culture Response(%),"[1]; Tables 6-11, dose 5 of 8",97.9% and 104.2% and 101.3% and 88.4% and 113.8% and 93.7%
N=C1C(=N)c2ccccc2-c2ccccc21.[Ru+2].c1ccc(-c2ccccn2)nc1.c1ccc(-c2ccccn2)nc1 [Ru(bpy)2 (phi)^2+],Unwinding Angle,pBR322 DNA,17 degrees
same,EC50,pBR322 DNA,1.1 µM
same,hypochromism / absorption change on DNA addition,calf thymus DNA [2],greatest change in absorption
same,Km × 10) equilibrium dialysis (intrinsic binding constant Kb),calf thymus DNA [3],160.(17) × 10
same,Site size,calf thymus DNA [3],4 base pairs
[Ru+2].c1ccc(-c2ccccn2)nc1.c1cnc2c(c1)ccc1cccnc12.c1cnc2c(c1)ccc1cccnc12 [Ru(phen)2 (bpy)^2+],Unwinding Angle,pBR322 DNA,18 degrees
same,EC50,pBR322 DNA,11 µM
same,Emission Enchantment (I/Io),calf thymus DNA [4],1.43 I/Io
same,Site size,calf thymus DNA [3],5-7 base pairs
[Ru+2].c1ccc(-c2ccccn2)nc1.c1ccc(-c2ccccn2)nc1.c1ccc(-c2ccnc3c2ccc2c(-c4ccccc4)ccnc23)cc1 [Ru(bpy)2 (DIP)^2+],EC50,pBR322 DNA,170 µM
same,binding to DNA,calf thymus DNA [2],bound very weakly
same,Emission Enchantment (I/Io),calf thymus DNA [4],1.13 I/Io
same,Km × 10) equilibrium dialysis (intrinsic binding constant Kb),calf thymus DNA [3],1.7(.3) × 10
same,Site size,calf thymus DNA [3],12-18 base pairs
"O=[N+]([O-])c1cc2cccnc2c2ncccc12.O=[N+]([O-])c1cc2cccnc2c2ncccc12.O=[N+]([O-])c1cc2cccnc2c2ncccc12.[Ru+2] [Ru(5-NO2phen)3^2+, [Ru(5-nitrophenanthroline)3)]Cl2]",binding to DNA,calf thymus DNA [2],bound very weakly
same,Site size,calf thymus DNA [3],8-12 base pairs
same,binding affinity for DNA,calf thymus DNA [3]; in words,bind only poorly to DNA; also recorded: much lower than would be expected based upon their solvent accessible surfaces
N=C1C(=N)c2ccccc2-c2ccccc21.N=C1C(=N)c2ccccc2-c2ccccc21.[Ru+2].c1ccc(-c2ccccn2)nc1 [Ru(phi)2 (bpy)^2+],unwinding of the helix,pBR322 DNA; in words,lower concentration
same,EC50,pBR322 DNA,0.6 µM
same,hypochromism / absorption change on DNA addition,calf thymus DNA [2],greatest change in absorption
same,Site size,calf thymus DNA [3],cooperative
same,aggregation in solution,calf thymus DNA [3]; in words,tend to agfregate in solution
same,binding curve type (cooperativity),calf thymus DNA [3]; in words,cooperatiove binding
same,binding affinity for DNA,"calf thymus DNA [3]; in words, listed as Ru(phi) 2 bpy^2+",in the range of those for Ru(phen)2phi^2+
same,binding affinity for DNA,"calf thymus DNA [3]; in words, listed as Ru(phi)2 bpy^2+",decreased affinity for DNA relative to Ru(bpy)2 ph^2+
